According to US4223021A, “Synthetic peptides having pituitary growth hormone releasing activity” (priority 1979, dated 1980):
Residues, ends and D or L forms follow the SMILES beside them.

Test system: pituitaries removed from 20 day old female rats
Experiment: In vitro growth hormone release study (incubated rat pituitaries, GH radioimmunoassay)
Assay type: cell-based
Conditions: mean ± SEM, control -198± 85
Method: Female rats of the CD-1 strain were housed in a constant temperature room at 24° C. with 14 hours light and 10 hours darkness. The rats were fed Purina brand rat chow ab libitum.
All studies were started between 0800 and 1000 hours.
Pituitaries were removed from 20 day old female rats. Two pituitaries were incubated at 36° C. in 1 ml of lactated Ringer's solution in 10 ml polytetrafluoroethylene beakers in a Dubnoff Shaker (90 cycles/min.). The pituitaries were incubated a total of 4 hours (P1, P2, I3, and I4). After two successive one hour preincubation periods (P1, P2), the peptide was added to the incubation medium hourly for 2 hours (I3, I4).
This in vitro study was performed in triplicate and a standard radioimmunoassay of growth hormone present in the incubation medium was performed in duplicate. The hormonal activity was calculated as the difference (Δ) of growth hormone (GH) levels between I3, I4 and P2, i.e., (I3 -P2) and (I4 -P2). P values were calculated by Students' t test using six growth hormone values for each value recorded.
The growth hormone radioimmunoassay reagents were distributed by the National Institute of Arthritis and […] (NIAMDD) program. The growth hormone values were calculated in terms of nanograms (ng) of a rat standard with a growth hormone potency of 0.61 units/mg.

Structure (SMILES): NC(=O)[C@@H](Cc1ccccc1)NC(=O)[C@H](Cc1ccccc1)NC(=O)[C@@H](Cc1c[nH]c2ccccc12)NC(=O)CNC(=O)[C@@H](N)Cc1ccc(O)cc1 [H2 N-Tyr-Gly-D-Trp-Phe-D-Phe-CONH2] (HELM PEPTIDE1{Y.G.[dW].F.[dF].[am]}$$$$V2.0)
- In vitro growth hormone release (ΔGH, I3/I4 minus P2) (1μg peptide, P value not significant): 200 ± 167 ngΔGH/ml incubation medium
- In vitro growth hormone release (ΔGH, I3/I4 minus P2) (10μg peptide, P value <0.001): 1384 ± 120 ngΔGH/ml incubation medium
- In vitro growth hormone release (ΔGH, I3/I4 minus P2) (100μg peptide, P value <0.001): 1196 ± 194 ngΔGH/ml incubation medium
